Patent US12251373B2, “Compounds and methods of treating retinal degeneration” (CASE WESTERN RESERVE UNIVERSITY, priority 2017, dated 2025)
pEC50: −log10 of the molar value. Where two headings read alike, the source gives them in different places.

Columns and labels:
Assay type in all cases: cell-based
mouse P23H opsin mutant = mouse P23H opsin mutant (Mus musculus, UniProt P15409, P23H); assay: β-Gal fragment complementation assay: rescue of P23H opsin transport from ER to plasma membrane, U2OS(PLC-EA/P23H-PK) cells; details: for Emax: U2OS
Description: U2OS(PLC-EA/P23H-PK) cells. A U2OS stable cell line was generated by DiscoveRx, Inc. (Fremont, CA, USA) for the β-Gal fragment complementation assay used in the small molecule HTS for rescue of P23H opsin transport. U2OS cells that continually express P23H-PK and PLC-EA fusion proteins were generated. Briefly, this small subunit of […] (PK fragment) was fused to the C-terminal of the mouse P23H opsin mutant, while the large EA fragment, a subunit of […], was fused with PLC, a plasma membrane anchored peptide. Both constructs were subcloned by DicoveRx, Inc. and transferred into U2OS cells by viral infections. Positive clones were selected under treatment with hygromycin and geneticin.
Briefly, U2OS(PLC-EA/P23H-PK) cells were suspended in assay medium at 3×10^5 cells mL^−1. The cell suspension was dispensed into 384-well plates (Greiner Bio-one, Monroe, NC, USA) at 20 μL per well, with a Multidrop dispenser (Thermo Scientific, Waltham, MA, USA). Plates with cells then were centrifuged at 200 g for 15 s before incubation at 37° C. with 5% CO2. Plates were removed 24 h later for treatment with tested compounds. A total of 248 plates containing 79,080 compounds from three small molecule libraries were paired with an equal number of assay plates with cultured cells. Due to a limited capacity, these plates were assayed in seven batches. An average of 56.3 nL of 10 mM compound in DMSO was dispensed into each well from column 3 to 22 of paired assay plates using a 50 nL 384-pintool system, such that the final concentration of each compound was 22.52 μM on average. […] Each assay plate was shaken for 5 s before further incubation at 37° C. with 5% CO2. […] Assay plates were incubated in the dark for 60-90 min, and luminescence was read from each assay plate with an Envision microplate reader (PerkinElmer) during a 0.1 s per well integration time. The mean and s.d. of readouts in column 2 of each plate were calculated as Mean0% and SD0%, whereas the average and s.d. of readouts in column 23 were calculated as Mean100% and SD100%. Equation 1: Activity scores (%)=(RLUcp−Mean0%)/(Mean100%−Mean0%)×100%, where RLUcp is the relative luminescence unit derived for cells treated with a compound. Equation 2: Z′-factor=1-3×(SD0%+SD100%)/(Mean100%−Mean0%); Equation 3: signal-to-background (S/B) ratio=Mean100%/Mean0%. Activities of all tested compounds were registered with their compound ID by GeneData Screener (Genedata, Basel, Switzerland) and Pipeline Pilot software (Accelrys, San Diego, CA, USA). Hits, cherry-picked from a separate stock dose-dependent activity test, were selected with an activity score cutoff at 20%. Activity of each hit was tested again with the β-Gal fragment complementation assay in a 10-dose series with each dose tested in triplicate. The 10 doses tested were 80, 40, 20, 10, 5, 2.5, 1.25, 0.625, 0.313, and 0.156 μM. Dose-dependent curves of each hit compound were fitted with GeneData and Origin software.
Detailed synthetic steps are described in FIG. 18. […] YC-002-YC-021 were purchased from commercial vendors including Enamine LLC (Monmouth Jct., NJ, USA), Matrix Scientific (Columbia, SC, USA) and Tokyo Chemical Industry Co., Ltd. (Portland, OR, USA). […] Activities of YC compounds were tested with the β-Gal fragment complementation assay, as described in a prior section. All YC compounds were tested at 10 doses, each in triplicate: 80, 40, 20, 10, 5, 2.5, 1.25, 0.625, 0.313, and 0.156 μM.

P23H opsin = biological target: T1, P23H opsin (Mus musculus, UniProt P15409, P23H); assay: Immunoblot of P23H opsin glycosylation in NIH3T3 cells; design: key to Improved glycosylation: n = no; y = yes; details: P23H opsin
T1 construct: expressed in transfected cells
Description: NIH3T3-(P23H-opsin/GFP) or NIH3T3-(WT-opsin/GFP) cells were seeded in a 48-well plate (Corning Costar) at 3.2×10^5 cells per well and incubated at 37° C. with 5% CO2 for 2 h. One hundred-μL of assay medium containing a compound at 5× its final concentration was added to each well. The plate was gently shaken for 5 s before further incubation at 37° C. with 5% CO2 for 24 h. The assay medium then was aspirated, and cells were lysed with 100 μL per well PBS containing 0.1% Triton X-100 and complete protease inhibitor cocktail (Roche, Basel, Switzerland) followed by sonication for 3 s. Protein concentrations were determined with the Bradford assay. For PNGase F catalyzed deglycosylation, 3 μL of PNGase F (1,500 U, NEB) was added to the cell lysate and the mixture was incubated at room temperature for 1 h before immunoblotting. For NIH3T3-(P23H-opsin/GFP) cells, 15 μg of total protein were loaded per well onto an SDS-polyacrylamide gel; whereas for NIH3T3-(WT-opsin/GFP) cells, 10 μg of total protein was loaded per well. Opsin protein was immunostained with 0.2 μg mL^−1 horseradish peroxidase-conjugated 1D4 anti-rhodopsin antibody. Band intensities were measured with ImageJ software (http://imagej.nih.gov/ij/; National the Institutes of Health, Bethesda, MD, USA) and normalized to a glyceraldehyde 3-phosphate dehydrogenase (GAPDH) loading control.

mouse P23H opsin = biological target: T2, mouse P23H opsin (Mus musculus, UniProt P15409, P23H); assay: Immunostain and image-based high-content analysis of P23H mutant opsin in NIH3T3 cells; details: ratio of P23H rod opsin fluorescence on plasma membrane to whole cell; for pEC50: read-out: Immunostaining HCS MEM-Total ratio EC50
T2 construct: expressed in transfected cells
Description: Three NIH3T3 stable cell lines, NIH3T3-(WT-opsin/GFP), NIH3T3-(P23H-opsin/GFP), and NIH3T3-(GFP) were previously generated which stably express mouse WT opsin and GFP; P23H opsin and GFP; and only GFP, respectively. GFP is expressed separately from opsin in these cell lines. NIH3T3 cells were from ATCC. DNA constructs for generating these stable cell lines were confirmed by Sanger sequencing. Expression of GFP was confirmed by green fluorescence imaging, and expression of P23H and WT opsin were confirmed by immunoblots.
To characterize the effect of active compounds on the localization of P23H mutant opsin in mammalian cells, an image-based assay was used with cells immunostained for WT or P23H mutant opsin protein. Briefly, NIH3T3-(P23H-opsin/GFP) or NIH3T3-(WT-opsin/GFP) cells were seeded at 5,000 cells per well in a 384-well cell-carrier plate (PerkinElmer) and incubated at 37° C. with 5% CO2 for 2 h. Cells were treated with compounds as described for the β-Gal fragment complementation assay and incubated in assay medium for 24 h. The assay medium then was aspirated, and cells were fixed with 4% paraformaldehyde at 20 μL per well for 20 min at RT. Cells were immunostained in one of two ways: cell membranes were either permeabilized with 0.1% Triton X-100 for 15 min or left intact and then were incubated with 10% goat serum (Life Technologies). To detect opsin on the cell plasma membrane only, intact cells were immunostained with 20 μL per well of 20 μg mL^−1 B6-30 anti-rhodopsin antibody that recognizes the N-terminal epitope on the extracellular side of rhodopsin. To detect total opsin, cells were permeabilized with Triton X-100 and immunostained with 50 μg mL^−1 1D4 anti-rhodopsin antibody specific for the C-terminal epitope on the intracellular side of rhodopsin. Opsin immunostaining was visualized by incubating cells with 5 μg mL^−1 Cy3-conjugated goat anti-mouse IgG antibody. Three washes with phosphate-buffered saline (PBS: 10 mM Na2HPO4, 1.8 mM KH2PO4, pH 7.4, 137 mM NaCl, and 2.7 mM KCl) were performed between each step of incubation with antibody. In the last wash with PBS, DAPI was added to each well at 300 nM. Fluorescence images were obtained with the Operetta High Content Imaging System (PerkinElmer) using a 20× long objective. Five fields were taken of each well for cell images using three channels for fluorescence: GFP (100 ms), Cy3 (300 ms), and DAPI (50 ms). Images were analyzed with Acapella software from the Columbus data storage and analysis system (PerkinElmer). For cells immunostained with opsin on the non-permeabilized cell membrane only, an average of total fluorescence intensity of Cy3 per cell was used to quantify opsin in each well of the 384-well plate. For cells immunostained with opsin in permeabilized whole cells, an average ratio of Cy3 intensity on the cell plasma membrane (PM) to that of the entire cell (opsin ratio PM-to-total) was calculated for each well of a 384-well plate to quantify opsin transport to the plasma membrane. The plasma membrane was defined within ±5% of the cell border.

[1] = Table 5, more than one site modified, read-out: Potency
[2] = Table 1, experimental maximum, read-out: β-Gal fragment complementation assay Activity score (%) Max (Exp)
[3] = Table 1, fitted maximum, read-out: β-Gal fragment complementation assay Activity score (%) Max (fit)
[4] = read-out: β-Gal fragment complementation assay Activity score (%) EC50
[5] = Table 3, modifications at C4 of the furan-2(5H)-one ring, read-out: Potency
[6] = Table 2, modifications at C3 of the furan-2(5H)-one ring, read-out: Potency EC50

| Emax (mouse P23H opsin mutant; read-out: Efficacy (%)) [%] | Improved glycosylation (P23H opsin) | Immunostaining HCS MEM-Total ratio Max (fit) (mouse P23H opsin) | pEC50 (mouse P23H opsin) | Emax (mouse P23H opsin mutant; [2]) [%] | Emax (mouse P23H opsin mutant; [3]) [%] | pEC50 (mouse P23H opsin mutant; [4]) | Structure (SMILES) | further results |
| --- | --- | --- | --- | --- | --- | --- | --- | --- |
| 10 | – | – | – | – | – | – | O=C1OCC(c2ccc(Br)s2)=C1c1ccc(Cl)cc1 [YC-011] | pEC50 (mouse P23H opsin mutant; [1]): 5.12 |
| – | n | 0.063 | 5.38 | 24.8 | 25.2 | 5.06 | O=C(NCC#CCN1CCCC1)c1cc(-c2ccccc2)on1 [Compound F6244-1415] | – |
| 5 | – | – | – | – | – | – | O=C1OCC(c2ccc(Cl)cc2)=C1c1cccs1 [YC-003] | pEC50 (mouse P23H opsin mutant; [5]): 4.66 |
| – | y | 0.025 | 5.17 | 60.4 | 165 | 4.27 | O=C(Cn1c2c(c(=O)n(C3CCCCC3)c1=O)CCC2)Nc1cccc(F)c1 [Compound F5111-0031] | – |
| 111 | – | – | – | – | – | – | O=C1OCC(c2ccc(Cl)s2)=C1c1ccccc1[N+](=O)[O-] [YC-013] | pEC50 (mouse P23H opsin mutant; [6]): 4.96 |
| 160 | – | – | – | – | – | – | O=C1OCC(c2ccc(F)s2)=C1c1cccs1 [YC-021] | pEC50 (mouse P23H opsin mutant; [5]): 3.99 |
| 288 | – | – | – | – | – | – | O=C1OCC(c2ccc(Cl)s2)=C1c1ccccc1Cl [YC-032] | pEC50 (mouse P23H opsin mutant; [6]): 5.24 |
| 10 | – | – | – | – | – | – | O=C1OCC(c2ccc(Br)s2)=C1c1ccc(F)cc1 [YC-009] | pEC50 (mouse P23H opsin mutant; [1]): 5.14 |
| – | n | 0.021 | 5.88 | 32.8 | 37.3 | 5.08 | O=C(NCCCn1cccc1)c1cc(-c2ccccc2)on1 [Compound F5937-0207] | – |
| 6 | – | – | – | – | – | – | O=C1OCC(c2cccs2)=C1c1cccs1 [YC-002] | pEC50 (mouse P23H opsin mutant; [5]): 4.48 |
| – | n | 0.031 | 5.38 | 23.1 | 31.5 | 4.67 | O=C(NCCn1ncc2c(NCc3ccco3)ncnc21)c1cc(-c2ccccc2)on1 [Compound F2902-1134] | – |
| – | n | 0.022 | 5.97 | 211 | 234 | 4.97 | Cc1cc(OCC(=O)Nc2cc(N3CCOCC3)ncn2)cc(C)c1Cl [Compound F6257-1860] | – |
| – | y | 0.010 | 6.19 | 244 | 230 | 5.23 | O=C(C1CC1)N(CCn1cccn1)c1nc2c(Cl)cccc2s1 [Compound F5581-0240] | – |
| 95 | – | – | – | – | – | – | Cc1sc(C)c(C2C(=O)OC(=O)C2c2c(C)sc(C)c2C)c1C (centres unmarked) [YC-018] | – |
| 10 | – | – | – | – | – | – | O=C1OCC(c2ccc(F)cc2)=C1c1cccs1 [YC-044] | pEC50 (mouse P23H opsin mutant; [5]): 4.42 |
| – | n | 0.041 | 5.21 | 31.8 | 51.6 | 4.60 | O=C(NCCCOc1cccc2cccnc12)c1cc(-c2ccccc2)on1 [Compound F5875-0200] | – |
| 38.3 | – | – | – | – | – | – | COc1ccccc1C1=C(c2ccc(Cl)s2)COC1=O [YC-033] | pEC50 (mouse P23H opsin mutant; [6]): 5.07 |
| 43.5 | – | – | – | – | – | – | O=C1OCC(c2ccc(Cl)s2)=C1c1cccc(Cl)c1 [YC-034] | pEC50 (mouse P23H opsin mutant; [6]): 5.32 |
| – | y | 0.046 | 5.62 | 931 | 155 | 4.54 | COCCNC(=O)c1sc2c(cnc3ccc(OC)cc32)c1-c1ccccc1 [Compound F3382-5924] | – |
| 11 | – | – | – | – | – | – | O=C1OCC(c2ccc(Br)s2)=C1c1ccc(Cl)c(Cl)c1 [YC-008] | pEC50 (mouse P23H opsin mutant; [1]): 4.60 |
| 214 | – | – | – | – | – | – | O=C1OCC(c2ccc(Cl)s2)=C1c1ccccn1 [YC-043] | pEC50 (mouse P23H opsin mutant; [6]): 4.72 |
| – | – | – | – | – | – | – | O=C1OCC(c2ccco2)=C1c1cccs1 [YC-049] | Efficacy (%) (mouse P23H opsin mutant; Table 3, normalized to 5 μM 9-cis-retinal): 112% |
